Experimental findings from patent publication US20250059171A1 (Hoffmann-La Roche Inc., priority 2021, published 2025) are described below.

One experiment has as its target SARS-CoV 3CLpro (Severe acute respiratory syndrome coronavirus, UniProt P0C6X7). Kind of experiment: biochemical.
The target of a further experiment is SARS-CoV-2 3CLpro (Severe acute respiratory syndrome coronavirus 2, UniProt P0DTD1). The experiment is described as follows: biochemical.
The next experiment has as its target HCoV-229E 3CLpro (Human coronavirus 229E, UniProt P0C6X1). Kind of experiment: HCoV-229E 3CLpro inhibition assay (FRET). In kind it is biochemical.
Another experiment deals with MERS-CoV 3CLpro (Middle East respiratory syndrome-related coronavirus, UniProt K9N7C7). Kind of experiment: biochemical.
Chain of MERS-CoV 3CLpro (K9N7C7 3248-3553): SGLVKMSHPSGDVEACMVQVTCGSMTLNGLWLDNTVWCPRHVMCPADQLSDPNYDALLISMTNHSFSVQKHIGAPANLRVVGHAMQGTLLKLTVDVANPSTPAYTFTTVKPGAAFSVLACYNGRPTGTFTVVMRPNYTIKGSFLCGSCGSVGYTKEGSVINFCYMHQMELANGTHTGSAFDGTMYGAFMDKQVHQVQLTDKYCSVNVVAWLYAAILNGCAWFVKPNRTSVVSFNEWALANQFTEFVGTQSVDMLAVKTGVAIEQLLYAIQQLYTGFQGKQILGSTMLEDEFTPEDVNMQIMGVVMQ

Chain of HCoV-229E 3CLpro (P0C6X1 2966-3267): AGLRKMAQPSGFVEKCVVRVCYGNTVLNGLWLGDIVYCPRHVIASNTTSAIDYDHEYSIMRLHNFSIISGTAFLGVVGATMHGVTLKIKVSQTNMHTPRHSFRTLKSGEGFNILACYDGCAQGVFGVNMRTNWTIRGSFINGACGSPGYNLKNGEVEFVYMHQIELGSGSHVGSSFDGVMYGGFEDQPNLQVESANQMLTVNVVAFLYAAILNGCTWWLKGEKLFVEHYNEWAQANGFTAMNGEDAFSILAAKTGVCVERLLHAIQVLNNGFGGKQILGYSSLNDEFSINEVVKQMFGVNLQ

For the compound `CC[C@@H](C)[C@H](NC(=O)C1CC1)C(=O)N1C[C@H]2[C@@H]([C@H]1C(=O)NN(C[C@@H]1CCNC1=O)C(=O)[C@H](F)Cl)C2(C)C` [Example 118, N-[(1S,2R)-1-[(1R,2S,5S)-2-[[[(2R)-2-chloro-2-fluoro-acetyl]-[[(3S)-2-oxopyrrolidin-3-yl]methyl]amino]carbamoyl]-6,6-dimethyl-3-azabicyclo[3.1.0]hexane-3-carbonyl]-2-methyl-butyl]cyclopropanecarboxamide], the IC50 – broadly, the concentration that inhibits the measured activity by half – is 18 nM at SARS-CoV 3CLpro, 13 nM against SARS-CoV-2 3CLpro, 27 nM against HCoV-229E 3CLpro and 109 nM against MERS-CoV 3CLpro.
Taken in the same sequence, the figures for `CC[C@@H](C)[C@H](NC(=O)C1(F)CCC1)C(=O)N1C[C@H]2[C@@H]([C@H]1C(=O)NN(C[C@@H]1CCNC1=O)C(=O)[C@H](F)Cl)C2(C)C` [Example 119, N-[(1S,2R)-1-[(1R,2S,5S)-2-[[[(2R)-2-chloro-2-fluoro-acetyl]-[[(3S)-2-oxopyrrolidin-3-yl]methyl]amino]carbamoyl]-6,6-dimethyl-3-azabicyclo[3.1.0]hexane-3-carbonyl]-2-methyl-butyl]-1-fluoro-cyclobutanecarboxamide] were 20 nM, 15 nM, 56 nM and 206 nM.
In the case of `CC[C@@H](C)[C@H](NC(=O)C(F)F)C(=O)N1C[C@H]2[C@@H]([C@H]1C(=O)NN(C[C@@H]1CCNC1=O)C(=O)[C@@H](F)Cl)C2(C)C` [Example 120, N-[(1S,2R)-1-[(1R,2S,5S)-2-[[[(2S)-2-chloro-2-fluoro-acetyl]-[[(3S)-2-oxopyrrolidin-3-yl]methyl]amino]carbamoyl]-6,6-dimethyl-3-azabicyclo[3.1.0]hexane-3-carbonyl]-2-methyl-butyl]-2,2-difluoro-acetamide], the IC50 came out at 34 nM at SARS-CoV 3CLpro, 19 nM against SARS-CoV-2 3CLpro, 38 nM against HCoV-229E 3CLpro and 98 nM on MERS-CoV 3CLpro.
On to `CC[C@@H](C)[C@H](NC(=O)C1(F)CC1)C(=O)N1C[C@H]2[C@@H]([C@H]1C(=O)NN(C[C@@H]1CCNC1=O)C(=O)[C@@H](F)Cl)C2(C)C` [Example 121, N-[(1S,2R)-1-[(1R,2S,5S)-2-[[[(2S)-2-chloro-2-fluoro-acetyl]-[[(3S)-2-oxopyrrolidin-3-yl]methyl]amino]carbamoyl]-6,6-dimethyl-3-azabicyclo[3.1.0]hexane-3-carbonyl]-2-methyl-butyl]-1-fluoro-cyclopropanecarboxamide], for which the half-maximal inhibitory concentration (IC50) against SARS-CoV 3CLpro turned out to be 50 nM; against SARS-CoV-2 3CLpro it was 26 nM; against HCoV-229E 3CLpro, 43 nM; against MERS-CoV 3CLpro, 131 nM.
In the case of `CC[C@@H](C)[C@H](NC(=O)[C@H](C)F)C(=O)N1C[C@H]2[C@@H]([C@H]1C(=O)NN(C[C@@H]1CCNC1=O)C(=O)[C@@H](F)Cl)C2(C)C` [Example 122, (2S)—N-[(1S,2R)-1-[(1R,2S,5S)-2-[[[(2S)-2-chloro-2-fluoro-acetyl]-[[(3S)-2-oxopyrrolidin-3-yl]methyl]amino]carbamoyl]-6,6-dimethyl-3-azabicyclo[3.1.0]hexane-3-carbonyl]-2-methyl-butyl]-2-fluoro-propanamide], the IC50 on SARS-CoV 3CLpro was found to be 36 nM; at SARS-CoV-2 3CLpro, 26 nM; against HCoV-229E 3CLpro it was 46 nM; against MERS-CoV 3CLpro, 146 nM.
For `CC[C@@H](C)[C@H](NC(=O)[C@@H](C)F)C(=O)N1C[C@H]2[C@@H]([C@H]1C(=O)NN(C[C@@H]1CCNC1=O)C(=O)[C@@H](F)Cl)C2(C)C` [Example 123, (2R)—N-[(1S,2R)-1-[(1R,2S,5S)-2-[[[(2S)-2-chloro-2-fluoro-acetyl]-[[(3S)-2-oxopyrrolidin-3-yl]methyl]amino]carbamoyl]-6,6-dimethyl-3-azabicyclo[3.1.0]hexane-3-carbonyl]-2-methyl-butyl]-2-fluoro-propanamide] the same measures were 62 nM, 37 nM, 51 nM and 146 nM.
For `CC[C@H](C)[C@H](NC(=O)C1CC(F)(F)C1)C(=O)N1C[C@@H]2CCC[C@@H]2[C@H]1C(=O)NN(C[C@@H]1CCNC1=O)C(=O)[C@H](F)Cl` [Example 126, N-[(1S,2S)-1-[(3S,3aS,6aR)-3-[[[(2R)-2-chloro-2-fluoro-acetyl]-[[(3S)-2-oxopyrrolidin-3-yl]methyl]amino]carbamoyl]-3,3a,4,5,6,6a-hexahydro-1H-cyclopenta[c]pyrrole-2-carbonyl]-2-methyl-butyl]-3,3-difluoro-cyclobutanecarboxamide] the same measures were 11 nM, 10 nM, 28 nM and 68 nM.
Taken in the same sequence, the figures for `CC[C@H](C)[C@H](NC(=O)C(F)F)C(=O)N1C[C@@H]2CCC[C@@H]2[C@H]1C(=O)NN(C[C@@H]1CCNC1=O)C(=O)[C@@H](F)Cl` [Example 127, N-[(1S,2S)-1-[(3S,3aS,6aR)-3-[[[(2S)-2-chloro-2-fluoro-acetyl]-[[(3S)-2-oxopyrrolidin-3-yl]methyl]amino]carbamoyl]-3,3a,4,5,6,6a-hexahydro-1H-cyclopenta[c]pyrrole-2-carbonyl]-2-methyl-butyl]-2,2-difluoro-acetamide] were 12 nM, 10 nM, 35 nM and 68 nM.
As to `CC[C@@H](C)[C@H](NC(=O)C1CC(F)(F)C1)C(=O)N1C[C@@H]2CCC[C@@H]2[C@H]1C(=O)NN(C[C@@H]1CCNC1=O)C(=O)[C@H](F)Cl` [Example 128, N-[(1S,2R)-1-[(3S,3aS,6aR)-3-[[[(2R)-2-chloro-2-fluoro-acetyl]-[[(3S)-2-oxopyrrolidin-3-yl]methyl]amino]carbamoyl]-3,3a,4,5,6,6a-hexahydro-1H-cyclopenta[c]pyrrole-2-carbonyl]-2-methyl-butyl]-3,3-difluoro-cyclobutanecarboxamide], the IC50 against SARS-CoV 3CLpro turned out to be 18 nM; against SARS-CoV-2 3CLpro, 11 nM; on HCoV-229E 3CLpro, 36 nM; on MERS-CoV 3CLpro, 97 nM.
Taken in the same sequence, the figures for `CCC(CC)[C@H](NC(=O)C1CC1)C(=O)N1C[C@H]2[C@@H]([C@H]1C(=O)NN(C[C@@H]1CCNC1=O)C(=O)[C@H](F)Cl)C2(C)C` [Example 129, N-[(1S)-1-[(1R,2S,5S)-2-[[[(2R)-2-chloro-2-fluoro-acetyl]-[[(3S)-2-oxopyrrolidin-3-yl]methyl]amino]carbamoyl]-6,6-dimethyl-3-azabicyclo[3.1.0]hexane-3-carbonyl]-2-ethyl-butyl]cyclopropanecarboxamide] were 16 nM, 11 nM, 29 nM and 104 nM.
In the case of `CCC(CC)[C@H](NC(=O)C1CC(F)(F)C1)C(=O)N1C[C@H]2[C@@H]([C@H]1C(=O)NN(C[C@@H]1CCNC1=O)C(=O)[C@H](F)Cl)C2(C)C` [Example 130, N-[(1S)-1-[(1R,2S,5S)-2-[[[(2R)-2-chloro-2-fluoro-acetyl]-[[(3S)-2-oxopyrrolidin-3-yl]methyl]amino]carbamoyl]-6,6-dimethyl-3-azabicyclo[3.1.0]hexane-3-carbonyl]-2-ethyl-butyl]-3,3-difluoro-cyclobutanecarboxamide], the IC50 turned out to be 19 nM at SARS-CoV 3CLpro, 12 nM on SARS-CoV-2 3CLpro, 32 nM on HCoV-229E 3CLpro and 87 nM against MERS-CoV 3CLpro.
For `CCC(CC)[C@H](NC(=O)C(F)F)C(=O)N1C[C@H]2[C@@H]([C@H]1C(=O)NN(C[C@@H]1CCNC1=O)C(=O)[C@H](F)Cl)C2(C)C` [Example 131, N-[(1S)-1-[(1R,2S,5S)-2-[[[(2R)-2-chloro-2-fluoro-acetyl]-[[(3S)-2-oxopyrrolidin-3-yl]methyl]amino]carbamoyl]-6,6-dimethyl-3-azabicyclo[3.1.0]hexane-3-carbonyl]-2-ethyl-butyl]-2,2-difluoro-acetamide] the same measures were 14 nM, 10 nM, 26 nM and 158 nM.
For `CCC(CC)[C@H](NC(=O)C1(F)CC1)C(=O)N1C[C@H]2[C@@H]([C@H]1C(=O)NN(C[C@@H]1CCNC1=O)C(=O)[C@H](F)Cl)C2(C)C` [Example 132, N-[(1S)-1-[(1R,2S,5S)-2-[[[(2R)-2-chloro-2-fluoro-acetyl]-[[(3S)-2-oxopyrrolidin-3-yl]methyl]amino]carbamoyl]-6,6-dimethyl-3-azabicyclo[3.1.0]hexane-3-carbonyl]-2-ethyl-butyl]-1-fluoro-cyclopropanecarboxamide] the same measures were 14 nM, 10 nM, 25 nM and 106 nM.
Regarding `CCC(CC)[C@H](NC(=O)C1(F)CC1)C(=O)N1C[C@H]2[C@@H]([C@H]1C(=O)NN(C[C@@H]1CCNC1=O)C(=O)[C@@H](F)Cl)C2(C)C` [Example 133, N-[(1S)-1-[(1R,2S,5S)-2-[[[(2S)-2-chloro-2-fluoro-acetyl]-[[(3S)-2-oxopyrrolidin-3-yl]methyl]amino]carbamoyl]-6,6-dimethyl-3-azabicyclo[3.1.0]hexane-3-carbonyl]-2-ethyl-butyl]-1-fluoro-cyclopropanecarboxamide], the 50% inhibitory concentration (IC50) was 32 nM against SARS-CoV 3CLpro, 20 nM against SARS-CoV-2 3CLpro, 40 nM on HCoV-229E 3CLpro and 106 nM at MERS-CoV 3CLpro.
As to `CCC(CC)[C@H](NC(=O)C1CC(F)(F)C1)C(=O)N1C[C@@H]2CCC[C@@H]2[C@H]1C(=O)NN(C[C@@H]1CCNC1=O)C(=O)[C@H](F)Cl` [Example 134, N-[(1S)-1-[(3S,3aS,6aR)-3-[[[(2R)-2-chloro-2-fluoro-acetyl]-[[(3S)-2-oxopyrrolidin-3-yl]methyl]amino]carbamoyl]-3,3a,4,5,6,6a-hexahydro-1H-cyclopenta[c]pyrrole-2-carbonyl]-2-ethyl-butyl]-3,3-difluoro-cyclobutanecarboxamide], the IC50 against SARS-CoV 3CLpro was determined as 14 nM; against SARS-CoV-2 3CLpro, 10 nM; against HCoV-229E 3CLpro, 36 nM; against MERS-CoV 3CLpro it was 97 nM.
